Each structure is given as a SMILES string.

For one series, the system named is Aspergillus fumigatus. The series can be described thus: Agar disk diffusion. The class given is cell-based. Conditions: disks containing 1 μg of test compound; FIG. 4. On the procedure:
Small molecule activity against the fungal pathogens Candida albicans and Aspergillus fumigatus was evaluated using an agar disk diffusion assay. Yeast (1×10^4) from an overnight culture of C. albicans was suspended in 600 μl of top agar (1% yeast extract (ThermoFisher), 2% peptone (ThermoFisher), 2% dextrose (Sigma), and 0.5% agar (Fisher)). This suspension was spread and allowed to solidify on 5 ml of base agar (YPD media containing 2% agar) in the well of a 6-well plate. Disks (6 mm AA, Whatman Inc., Piscataway, N.J., Cat#2017-006) were aseptically placed on a sterile Petri dish lid. Compounds selected from stage II (1 μg total) were each suspended in 100% dimethyl sulfoxide (DMSO) to a total volume of 5 μl, added to separate disks, and allowed to dry for five minutes. Fludioxonil (Sigma) and DMSO-only disks served as positive and negative controls, respectively. Disks were placed into separate wells and incubated at room temperature for 48 hours. Antifungal activity was determined based on the size of the zone of inhibition of C. albicans growth.
Activity against A. fumigatus was determined following the aforementioned disk diffusion assay. The protocol only differed in that 6.0×10^5 conidia were used instead of yeast, and the plates were incubated at 37° C. for 48 hours instead of room temperature (FIG. 4).
In general terms: In agar diffusion tests the substance spreads into inoculated agar from a disc or well.

A further series concerns Candida albicans biofilm. The series can be described thus: In vitro biofilm drug synergy (checkerboard, XTT). The class given is cell-based. Conditions: for Synergy with Fluconazole by fractional inhibitory concentration (FIC): FIC from EC25, values ≦0.5 indicate synergy, FIG. 9; for growth reduction: alone and in combination. On the procedure: Candida biofilms were formed in 96-well flat-bottom polystyrene plates (Fischer) as described previously ([…], Crawford K, Andes D R. Optimizing a Candida Biofilm Microtiter Plate Model for Measurement of Antifungal Susceptibility by XTT Assay. J. Clin. Microbiol. 2011 Jan., 2). Cells from an overnight culture grown in YPD shaking at 37° C. were enumerated by hemocytometer and suspended in RPMI-MOPS (Fisher) at a concentration of 10^6 cells/ml. A 100 μl of inoculum was added to each well of the plate. After 6 h incubation at 37° C., biofilms were gently washed twice with phosphate-buffered saline (PBS) to remove unattached cells. […] The ranges of concentrations of the fluconazole used included the standard doses given to humans. After overnight incubation at 37° C., biofilms were washed twice with PBS. Measurement of biofilm cell metabolic activity using the XTT reduction assay was performed as previously described ([…], Crawford K, Andes D R. Optimizing a Candida Biofilm Microtiter Plate Model for Measurement of Antifungal Susceptibility by XTT Assay. J. Clin. Microbiol. 2011 January, […], and Andes D. Synergistic Effect of Calcineurin Inhibitors and Fluconazole against Candida albicans Biofilms. Antimicrob Agents Chemother. 2008 March; 52(3): 1127-1132). Briefly, 90 μl of XTT at 1 mg/ml (Sigma) and 10 μl phenazine methosulfate at 320 μg/ml (Sigma) were added to each well, and the plate was incubated at 37° C. for 2 h. Viable cell number was assessed using the Absorbance at 492nm measured using an automated plate reader. Assays were performed in duplicate. The drug concentration resulting in a 25% reduction in optical density compared to the no-drug control wells was determined (EC25).
(In general: Formazan colour is commonly taken as a measure of viable cells.)

A further series has as its system Drk1 reporter strain. The series can be described thus: Drk1 reporter strain corroboration. The class given is cell-based. The source says:
The results of the Hik1 histidine kinase reporter strain were corroborated with a Drk1 reporter strain, especially regarding compounds 13 and 33. Dr. David Andes, Dr. Nancy Keller, and the clinical microbiology laboratory at the University of Wisconsin Hospital provided the microbial strains used in this study (9-12).

Series [1] relates to C. albicans resistant to conventional antifungals fluconazole and micafungin. Kind of series: Microbroth dilution (MIC), CLSI M27. The class given is cell-based, Candida albicans. Conditions: FIG. 5B. On the procedure: (§1) Clinical and Laboratory Standards Institute (CLSI) protocol M27 was used to quantify the minimum inhibitory concentration (MIC) of compounds 13 and 33 against yeast fungal pathogens (13). Briefly, compounds were solubilized in 100% DMSO and serially diluted two-fold in a 96 well plate in 100 μl of RPMI medium. A 100 μl aliquot of RPMI medium containing 3×10^3 yeast/ml of an overnight culture was then added to each well. Medium, medium+yeast, and medium+yeast+DMSO wells were prepared as controls. Each well was prepared in triplicate. The plates were incubated at 35° C. for 48 hours. The MIC concentration was defined as the concentration at which no growth was visible by eye and the results verified by plating on YPD agar. The experiment was performed in duplicate. MIC concentrations were also defined against filamentous fungi using the CLSI protocol M38 (14). This protocol only differed from M27 in that 100 μl of medium containing 4×10^5 spores/ml were added instead of yeast (FIG. 5A-I).

A further series deals with Cryptococcus neoformans. The series can be described thus: Microbroth dilution (MIC), CLSI M27. Conditions: FIG. 5F. The class given is cell-based. On the procedure: as §1
The test system of another series is Candida albicans. The series can be described thus: Microbroth dilution (MIC), CLSI M27. The class given is cell-based. Conditions: FIG. 5A. On the procedure:
as §1
In general terms: Broth dilution looks for growth in wells or tubes with falling amounts of substance.

The subject of another series is C. krusei. The series can be described thus: Microbroth dilution (MIC), CLSI M27. The settings on record: FIG. 5D. The class given is cell-based. On the procedure:
as §1

The next series relates to C. gattii. The series can be described thus: Microbroth dilution (MIC), CLSI M27. The settings on record: FIG. 5G. The class given is cell-based. On the procedure: as §1
The test system of the next series is C. glabrata. Kind of series: Microbroth dilution (MIC), CLSI M27. The class given is cell-based. Conditions: FIG. 5E. On the procedure: as §1
Another series has as its system C. lusitaniae. Kind of series: Microbroth dilution (MIC), CLSI M27. The class given is cell-based. Conditions: FIG. 5C. On the procedure: as §1
Series [2] concerns wild type Aspergillus fumigatus. The series can be described thus: Microbroth dilution (MIC), CLSI M38. The class given is cell-based. Conditions: FIG. 5H. On the procedure:
as §1

The test system of series [3] is drug resistant A. fumigatus. The series can be described thus: Microbroth dilution (MIC), CLSI M38. The class given is cell-based, Aspergillus fumigatus. The settings on record: FIG. 5I. On the procedure: as §1
The test system of another series is Aspergillus flavus. The series can be described thus: Microbroth dilution against plant fungal pathogen. The class given is cell-based. The settings on record: four isolates of A. flavus; FIG. 8. On the procedure: as §1, with “M38” left out, “5A-I). […] Briefly, the MICs of compounds 13 and 33 were determined for each of the 4 isolates and compared with the conventional antifungal compound, voriconazole (available from Sigma). […]” for “5A-I).”

A further series deals with Hik1 Saccharomyces. The series can be described thus: Hik1 Saccharomyces reporter strain growth assay (small molecule screen). Conditions: FIG. 2. The class given is cell-based. The text has this: To identify putative antifungals that act directly or indirectly through histidine kinase homologs of Drk1, we used a high throughput growth assay that uses a yeast reporter strain expressing a heterologous two-component sensor kinase (Hik1) to identify compounds that target the kinase and inhibit/kill the yeast. Hik1 and Drk1 are very closely related having near 80% amino acid sequence identity (FIG. 1). The Saccharomyces reporter contained an episomal plasmid with the hybrid histidine kinase Hik1 under the control of the galactose promoter (8). The Saccharomyces strain was provided by the Osada lab from RIKEN (Institute of Physical and Chemical Research, 2-1 Hirosawa, Wako, Saitama, 351-0198, Japan). It was used for screening initially. […]

Method for human red blood cells: Briefly, human red blood cells (RBCs) were isolated via FICOLL® (Sigma) gradient centrifugation and stored on ice. The RBCs were pelleted by centrifugation and washed with PBS a total of three times. A 2% RBC suspension in PBS was made and stored on ice for less than one hour. Drugs were suspended in DMSO and two-fold serial dilutions were prepared in PBS with a total volume of 100 μl in a 96-well round-bottom plate in triplicate. Wells containing PBS and Triton X-100 (Sigma) were used as negative and positive controls of hemolysis, respectively. A 100 μl aliquot of the 2% RBC suspension was then added to each well. The plate was then incubated at 37° C. for one hour. The plate was then centrifuged at 2,500 rpm for five minutes to pellet the RBCs. A 50 μl aliquot of the supernatant was transferred to a fresh 96-well plate, and absorbance at 405 nm was measured using an automated plate reader to quantify heme release.

For the molecule `O=[N+]([O-])c1ccc(/C=C/c2ccc([N+](=O)[O-])o2)cc1` [Compound 13], the “Inhibition of Aspergillus growth (zone of inhibition)” value (“Inhibition of Aspergillus growth” below) with Aspergillus fumigatus was “inhibited growth”. In addition, the “Synergy with Fluconazole by fractional inhibitory concentration (FIC)” value in the series on Candida albicans biofilm is on record as “synergy”. Moreover, the growth reduction in the series on Candida albicans biofilm (FIG. 9A, compound 13 experiment: fluconazole at 62.5 ug/ml, 13 at 0.8 ug/ml) amounted to 18%. In addition, the “Hik1 reporter strain results corroborated with Drk1 reporter strain” value in the series with Drk1 reporter strain is on record as “corroborated”. Besides, the “Activity (MIC, cumulative inhibition)” value (in series [1]; with Cryptococcus neoformans; with Candida albicans; in the series on C. krusei; in the series with C. gattii; with C. glabrata) was “active” throughout. Also, the “Activity (MIC, cumulative inhibition)” value (with C. lusitaniae; in series [2]; in series [3]) was “active” in each case. In addition, the “Hemolysis (heme release, absorbance at 405 nm) compared with amphotericin B” value in the series on human red blood cells is “less hemolytic”. Besides, the “Cumulative inhibition of Aspergillus flavus” value in the series on Aspergillus flavus is “inhibition”.
For the molecule `CSc1nnc(Sc2ncc([N+](=O)[O-])s2)s1` [Compound 33], the “Inhibition of Aspergillus growth” value in the series on Aspergillus fumigatus is “inhibited growth”. Besides, in the series with Candida albicans biofilm, the “Synergy with Fluconazole by fractional inhibitory concentration (FIC)” value is on record as “synergy”. Besides, the growth reduction entry with Candida albicans biofilm (FIG. 9B, compound 33 experiment: fluconazole at 62.5 ug/ml, 33 at 1.6 ug/ml) was “approximately 9%”. Moreover, the “Hik1 reporter strain results corroborated with Drk1 reporter strain” value in the series with Drk1 reporter strain is “corroborated”. Further, the “Activity (MIC, cumulative inhibition)” value (in [1]; in the series on Cryptococcus neoformans; in the series with Candida albicans; in the series on C. krusei; in the series with C. gattii; in the series on C. glabrata) was “active” each time. Also, the “Activity (MIC, cumulative inhibition)” value (with C. lusitaniae; in series [2]; in series [3]) was “active” each time. In addition, the “Hemolysis (heme release, absorbance at 405 nm) compared with amphotericin B” value in the series on human red blood cells was “less hemolytic”. Further, the “Cumulative inhibition of Aspergillus flavus” value with Aspergillus flavus was “inhibition”.
`C[C@@H]1[C@H](O)[C@@H](C)/C=C/C=C/C=C/C=C/C=C/C=C/C=C/[C@H](O[C@@H]2O[C@H](C)[C@@H](O)[C@H](N)[C@@H]2O)C[C@@H]2O[C@](O)(C[C@@H](O)C[C@@H](O)[C@H](O)CC[C@@H](O)C[C@@H](O)CC(=O)O[C@H]1C)C[C@H](O)[C@H]2C(=O)O` [amphotericin B, reference compound]: the “Inhibition of Aspergillus growth” value in the series on Aspergillus fumigatus is reported as “created zones of inhibition”.
Turning to `N#Cc1c[nH]cc1-c1cccc2c1OC(F)(F)O2` [fludioxonil], the “Inhibition of Aspergillus growth” value with Aspergillus fumigatus was “created zones of inhibition”. Moreover, in the series with Hik1 Saccharomyces (galactose (Hik1 induced)), the “Growth of Hik1 Saccharomyces on galactose with fludioxonil” value was “inhibited Saccharomyces growth”. The “Growth of Hik1 Saccharomyces in glucose with fludioxonil” value with Hik1 Saccharomyces (glucose, which does not induce Hik1) was “uninhibited”.

These data come from US9896442B2, “Antifungal treatment” (Wisconsin Alumni Research Foundation, priority 2010, dated 2018).
